{"source": "patent US4568689A", "about": "“Pharmaceutical preparation for the treatment of hypertensive disease and myocardial infarction” (priority 1983, dated 1986)", "key": {"[1]": {"tested_on": "arterial pressure of spontaneously hypertensive rats", "experiment": "effect of the oral form on arterial pressure, spontaneously hypertensive rats", "format": "in vivo", "procedure": "Also studied was the efficiency of the oral form of the preparation according to the present invention. […] The efficiency was studied within the range of doses from 50 to 100 mg/kg."}, "[2]": {"tested_on": "experimental necrosis of myocardium caused by introduction of adrenaline", "experiment": "histological analysis of experimental necrosis of myocardium caused by adrenaline", "format": "in vivo, rats of the Wistar line", "procedure": "A comparative study of the effects produced by the preparation according to the present invention and finoptin on an experimental necrosis of myocardium caused by introduction of adrenaline.\nThe experiments were carried out on rats of the Wistar line of gregarious keeping, both sexes, with a mass of 170 to 225 g. Each preparation was studied on a separate group of animals: (group of adrenaline-control, group of finoptin, group of the preparation according to the present invention). 72 rats were used in the experiments altogether. Injuries of myocardium were caused by way of a single-time subcutaneous administration of a 0.1% solution of adrenaline hydrochloride in the dose of 3 mg per kg of the rat's bodyweight. […] The preparation of this invention was administered subcutaneously, finoptin-per os. On the first day of the experiment the preparations were administered 30 minutes after injection of adrenaline hydrochloride. The experiment lasted for 19 days. Slaughters were effected on the 4th, 8th, 12th and 19th day of the experiment. The animals were decapitated. The heart was fixed in a 10% solution of neutral formalin and sealed in paraffin. Serial sections with the thickness of 5-6μ were coloured by Ehrlich hematoxylin-eosin. The state of vessels of myocardium, cardiomyocytes and interstitial tissue were evaluated by histological analysis."}, "[3]": {"settings": "4th day, grade/number of animals (6)"}, "[4]": {"settings": "8th day, grade/number of animals (6)"}, "[5]": {"settings": "12th day, grade/number of animals (6)"}, "[6]": {"settings": "19th day, grade/number of animals (5)"}}, "note": "“Also recorded” adds a separate entry of the source.", "data": [{"smiles": "C[N+]1(C)CC(CC(=O)[O-])C(=O)N1", "note": "(stereo not shown) [Preparation of this invention, (1,1-dimethyl-3-oxopyrazolin-1-io-4-yl)acetate]", "values": [{"measurement": "Variation of arterial pressure, systolic", "setting": "[1]; 50 mg/kg per os, 4 hours", "value": "-3 % of the initial"}, {"measurement": "Variation of arterial pressure, diastolic", "setting": "[1]; 75 mg/kg per os, 1 hour", "value": "-17 % of the initial"}, {"measurement": "Variation of arterial pressure, systolic", "setting": "[1]; 75 mg/kg per os, 1 hour", "value": "-10 % of the initial"}, {"measurement": "Variation of arterial pressure, diastolic", "setting": "[1]; 75 mg/kg per os, 2 hours", "value": "-18 % of the initial"}, {"measurement": "superiority in duration of action over nifedipine", "setting": "[1]; 75 mg/kg per os, vs nifedipine", "value": "at least 3 times"}, {"measurement": "Variation of arterial pressure, diastolic", "setting": "[1]; 100 mg/kg per os, 1 hour", "value": "-8 % of the initial"}, {"measurement": "Variation of arterial pressure, systolic", "setting": "[1]; 100 mg/kg per os, 1 hour", "value": "-7 % of the initial"}, {"measurement": "Variation of arterial pressure, diastolic", "setting": "[1]; 100 mg/kg per os, 24 hours", "value": "-3 % of the initial"}, {"measurement": "changes in cardiomyocytes", "setting": "[2]; 4th day, 25 mg/kg", "value": "The granular-lumpy decomposition, necrosis of 3-5 cells is observed in a half of the investigated animals"}, {"measurement": "changes in interstitial tissue", "setting": "[2]; 4th day, 25 mg/kg", "value": "The formation of granulomae on the side of the interstitial tissue is observed in all of the animals"}, {"measurement": "changes in vessels", "setting": "[2]; 4th day, 25 mg/kg", "value": "the left ventricle capillaries are plethoric. In two cases insignificant infiltrations of the adventitia with lymphoid cells are observed"}, {"measurement": "edema (interstitial tissue)", "setting": "[2]; [3]", "value": "0/6"}, {"measurement": "necrobiotic regions in the wall", "setting": "[2]; [3]", "value": "0/6"}, {"measurement": "necrosis of more than 5 cells", "setting": "[2]; [3]", "value": "0/6"}, {"measurement": "wall necrosis (vessels)", "setting": "[2]; [3]", "value": "0/6"}, {"measurement": "overall therapeutic effect on the myocardium", "setting": "[2]; 4th, 8th, 12th and 19th day", "value": "possesses a clearly manifested therapeutic effect allowing no significant changes in the myocardium, prevents the growth of the scarring tissue, contributes to the restoration of morphological structures of the myocardium"}, {"measurement": "changes in interstitial tissue", "setting": "[2]; 8th day, 25 mg/kg", "value": "the formation of the scarring tissue is to a lesser extent than in the control group"}, {"measurement": "changes in vessels", "setting": "[2]; 8th day, 25 mg/kg", "value": "the coronary vessels are without changes; in some cases insignificantly plethoric vessels and changes in cells in the form of swelling are observed"}, {"measurement": "diffusive round-cell infiltration", "setting": "[2]; [4]", "value": "0/6"}, {"measurement": "edema (interstitial tissue)", "setting": "[2]; [4]", "value": "0/6"}, {"measurement": "infiltration of the adventitia with lymphoid cells", "setting": "[2]; [4]", "value": "0/6"}, {"measurement": "necrobiotic regions in the wall", "setting": "[2]; [4]", "value": "0/6"}, {"measurement": "necrosis of more than 5 cells", "setting": "[2]; [4]", "value": "0/6"}, {"measurement": "nuclei (pyknosis)", "setting": "[2]; [4]", "value": "0/6"}, {"measurement": "wall necrosis (vessels)", "setting": "[2]; [4]", "value": "0/6"}, {"measurement": "changes in cardiomyocytes", "setting": "[2]; 12th day, 25 mg/kg", "value": "In comparison with the 8th day of the experiment eosinophilia and contructure type changes are decreased"}, {"measurement": "changes in interstitial tissue", "setting": "[2]; 12th day, 25 mg/kg", "value": "the scarring tissue formation is more distinctly pronounced. These changes are substantially less revealed than the changes in the control group (adrenaline)"}, {"measurement": "changes in vessels", "setting": "[2]; 12th day, 25 mg/kg", "value": "an insignificant plethora of the vessels is observed on the 12th day of the experiment"}, {"measurement": "Nuclei (pykhnosis)", "setting": "[2]; [5]", "value": "0/6"}, {"measurement": "diffusive round-cell infiltration", "setting": "[2]; [5]", "value": "0/6"}, {"measurement": "edema (interstitial tissue)", "setting": "[2]; [5]", "value": "0/6"}, {"measurement": "infiltration of the adventitia with lymphoid cells", "setting": "[2]; [5]", "value": "0/5"}, {"measurement": "necrobiotic regions with changes in the vessel wall", "setting": "[2]; [5]", "value": "0/6"}, {"measurement": "necrosis of more than 5 cells", "setting": "[2]; [5]", "value": "0/6"}, {"measurement": "wall necrosis (vessels)", "setting": "[2]; [5]", "value": "0/6"}, {"measurement": "changes in cardiomyocytes", "setting": "[2]; 19th day, 25 mg/kg", "value": "In half of the animals the granular-lumpy decomposition is less pronounced. Necrosis of individual cells and eosinophilia, as well as contructure type changes are also observed"}, {"measurement": "changes in connective tissue", "setting": "[2]; 19th day, 25 mg/kg", "value": "a less pronounced formation of the scarring tissue is to be noted as compared to the control group"}, {"measurement": "changes in vessels", "setting": "[2]; 19th day, 25 mg/kg", "value": "By the 19th day this phenomena becomes more clearly pronounced; also recorded: no changes were noticed on the part of the coronary vessels. The plethora of capillaries in the left ventricle wall is noticed"}, {"measurement": "changes in the endothelium", "setting": "[2]; [6]", "value": "0/5"}, {"measurement": "infiltration of the adventitia with lymphoid cells", "setting": "[2]; [6]", "value": "0/5"}, {"measurement": "necrobiotic regions with changes in the vessel wall", "setting": "[2]; [6]", "value": "0/5"}, {"measurement": "necrosis of more than 5 cells", "setting": "[2]; [6]", "value": "0/5"}, {"measurement": "nuclei (pyknosis)", "setting": "[2]; [6]", "value": "0/5"}]}]}
